Measured values: patent US9815863B2, “Hydrogen bond forming fluoro ketolides for treating diseases” (priority 2010, dated 2017)

Key:
[1] = system: bacterial protein synthesis (E. coli S30 extract); test: E. coli cell-free transcription-translation (TnT) S30 system, firefly luciferase synthesis; conditions: read-out: IC50 of inhibition of firefly luciferase synthesis, ribosomes 600 nM
[2] = system: 2058-dimethylated ribosomes isolated from the S. aureus N315 strain; test: RNA footprinting of A2058-dimethylated (Erm-modified) ribosomes from S. aureus N315; type: binding; conditions: S. aureus N315 ribosomes dimethylated at A2058, drugs at 100 μM
Procedure: (§1) Ribosome chemical probing. rRNA probing was done following standard protocols (Merryman, C., and H. F. Noller. 1998. Footprinting and modification-interference analysis of binding sites on RNA, p. 237-253. In C. W. J. Smith (ed.), RNA:Protein Interactions, A Practical Approach. Oxford University Press, Oxford), with minor modifications. Briefly, 200 nM ribosomes were incubated with 100 μM antibiotic in 50 μL of buffer B (80 mM HEPES-KOH [pH 7.8], 20 mM MgCl2, 100 mM NH4Cl, 1.5 mM dithiothreitol) for 10 min at 37° C., followed by 10 min at 20° C. Modifying reagents (dimethyl sulfate [DMS], kethoxal, or 1-cyclohexyl-3-(2-morpholinoethyl)carbodiimide metho p-toluene sulfonate [CMCT]) were added and the modification reaction was carried out for 10 min at 37° C. After quenching the reaction and ethanol precipitation, rRNA was extracted and the distribution of modified nucleotides was assessed by primer extension.
Interaction of CEM-101 with S. aureus ribosomes dimethylated at A2058 by Erm-methyltransferase. Erm-methyltransferase modifies A2058 in 23S rRNA by consecutively adding two methyl groups to the exocyclic amino group of the adenine base. Such modification completely blocks binding of erythromycin and similar macrolides, whereas its effect on binding of ketolides is less clear (Douthwaite, S., L. H. Hansen, and P. Mauvais. 2000. Macrolide-ketolide inhibition of MLS-resistant ribosomes is improved by alternative drug interaction with domain R of 23S rRNA. Mol. Microbiol. 36:183-193; Liu, M., and S. Douthwaite. 2002. Activity of the ketolide telithromycin is refractory to Erm monomethylation of bacterial rRNA. Antimicrob. Agents Chemother. 46:1629-1633). Therefore, interaction of CEM-101 with the ribosomes isolated from a clinical S. aureus strain N315, which carries five chromosomal copies of constitutively expressed ermA gene present in the Tn554 transposon (Kuroda, M., T. Ohta, I. Uchiyama, T. Baba, H. Yuzawa, I. Kobayashi, L. Cui, A. Oguchi, K. Aoki, Y. Nagai, J. Lian, T. Ito, M. Kanamori, H. Matsumaru, A. Maruyama, H. Murakami, A. Hosoyama, Y. Mizutani-Ui, N. K. Takahashi, T. Sawano, R. Inoue, C. Kaito, K. Sekimizu, H. Hirakawa, S. Kuhara, S. Goto, J. Yabuzaki, M. Kanehisa, A. Yamashita, K. Oshima, K. Furuya, C. Yoshino, T. Shiba, M. Hattori, N. Ogasawara, H. Hayashi, and K. Hiramatsu. 2001. Whole genome sequencing of meticillin-resistant Staphylococcus aureacs. Lancet 357:1225-1240) was investigated.
Footprinting analysis was used to test interactions of ketolides (CEM-101 and telithromycin) and cladinose-containing macrolides (CEM-103 and erythromycin) with the 2058-dimethylated ribosomes isolated from the S. aureus N315 strain. Ribosomes were incubated with the drugs (present at 100 μM concentration) and probed by DMS modification. Because dimethylated A2058 blocks progression of reverse transcriptase along the RNA template, a strong reverse transcriptase stop is observed at A2058 on the primer extension gel (Vester, B., and S. Douthwaite. 1994. Domain V of 23S rRNA contains all the structural elements necessary for recognition by the ErmE methyltransferase. J. Bacteriol. 176:6999-7004; Zhong, P., Z. Cao, R. Hammond, Y. Chen, J. Beyer, V. D. Shortridge, L. Y. Phan, S. Pratt, J. Capobianco, K. A. Reich, R. K. Flamm, Y. S. Or, and L. Katz. 1999. Induction of ribosome methylation in MLS-resistant Streptococcus pneumoniae by macrolides and ketolides. Microb. Drug Resist. 5:183-188). Therefore, it is impossible to use footprinting to evaluate interactions of macrolides with this position in the S. aureus N315 ribosomes. […]

[3] = system: E. coli ribosomes (23S rRNA); test: RNA footprinting (ribosome chemical probing), wild-type E. coli ribosomes; type: binding; conditions: 100 μM antibiotic; for Protection of A752 from DMS modification: E. coli ribosomes
Procedure: as §1
(§2) Interactions of CEM-101 with wild-type E. coli and S. aureus ribosomes in solution. […] 1987. Chloramphenicol, erythromycin, carbomycin and vernamycin B protect overlapping sites in the peptidyl transferase region of 23S ribosomal RNA. Biochimie 69:879-884). Also included in this study was a C3-cladinose cousin of CEM-101, CEM-103, which lacks the C2-linked fluorine atom.

[4] = system: S. aureus ribosomes (23S rRNA); test: RNA footprinting (ribosome chemical probing), wild-type S. aureus ribosomes; type: binding; conditions: 100 μM antibiotic; for Protection of A752 from DMS modification: S. aureus ribosomes
Procedure: as §1, §2

[5] = system: E. coli ATCC 25922/WT; test: Conventional antibacterial screen; type: cell-based
[6] = system: S. pneumoniae ATCC 49619/WT; test: Conventional antibacterial screen; type: cell-based
[7] = system: S. pneumoniae 120-1037B/-ermB/mefA; test: Conventional antibacterial screen; type: cell-based
[8] = system: S. aureus ATCC 29213/WT; test: Conventional antibacterial screen; type: cell-based
[9] = system: S. pneumoniae 117-20B/WT; test: Conventional antibacterial screen; type: cell-based
[10] = system: S. aureus BAA-977/ermA; test: Conventional antibacterial screen; type: cell-based
[11] = system: S. pneumoniae 007-4589A/ermB; test: Conventional antibacterial screen; type: cell-based
[12] = system: E. coli 122-5930A/WT; test: Conventional antibacterial screen; type: cell-based
[13] = system: S. pneumoniae 014-4331A/mefA; test: Conventional antibacterial screen; type: cell-based
[14] = system: S. pyogenes 129-7129A/ermA; test: Conventional antibacterial screen; type: cell-based
[15] = system: M. luteus ATCC 9341/WT; test: Conventional antibacterial screen; type: cell-based
[16] = system: S. pyogenes ATCC 19615; test: Conventional antibacterial screen; type: cell-based
[17] = system: S. aureus 024-11A/WT; test: Conventional antibacterial screen; type: cell-based
[18] = system: S. aureus D-5/ermA; test: Conventional antibacterial screen; type: cell-based
[19] = system: S. pyogenes 089-14217A/ermB; test: Conventional antibacterial screen; type: cell-based
[20] = system: Streptococcus pyogenes Tel^R, Mac^R; test: MIC against streptococci clinical isolates (Table 3); type: cell-based; conditions: S. pyogenes Tel^R, Mac^R; 9 strains (8 ermB, 1 ermA, constitutive)
[21] = system: Streptococcus pyogenes Tel^S, Mac^S; test: as above; type: cell-based; conditions: 10 strains
[22] = system: Streptococcus pneumoniae Pen^R, Tel^1/^R, Mac^R; test: as above; type: cell-based; conditions: S. pneumoniae Pen^R, 12 strains, constitutive ermB
[23] = system: Streptococcus pneumoniae Pen^S, Tel^S, Mac^S; test: as above; type: cell-based; conditions: 10 strains

| Compound | IC50 [1] | Protection of A2059 from DMS modification (binding to Erm-modified ribosome) [2] | Protection of G2505 from kethoxal modification [2] | Protection of U2609 from modification with CMCT [2] | Protection of A752 from DMS modification [3] | Protection of A752 from DMS modification [4] | Screening result [5] | Screening result [6] | Screening result [7] | Screening result [8] | Screening result [9] | Screening result [10] | Screening result [11] | Screening result [12] | Screening result [13] | Screening result [14] | Screening result [15] | Screening result [16] | Screening result [17] | Screening result [18] | further results |
| --- | --- | --- | --- | --- | --- | --- | --- | --- | --- | --- | --- | --- | --- | --- | --- | --- | --- | --- | --- | --- | --- |
| CC[C@H]1OC(=O)[C@H](C)[C@@H](O[C@H]2C[C@@](C)(OC)[C@@H](O)[C@H](C)O2)[C@H](C)[C@@H](O[C@@H]2O[C@H](C)C[C@H](N(C)C)[C@H]2O)[C@](C)(O)C[C@@H](C)CN(C)[C@H](C)[C@@H](O)[C@]1(C)O [azithromycin] | 0.3 µM |  |  |  |  |  |  |  |  |  |  |  |  |  |  |  |  |  |  |  |  |
| 11-N-[4-[4-(3-aminophenyl)[1,2,3]triazol-1-yl]butyl]-6-O-methylerythromycin A 11,12-cyclic carbamate [CEM-103] |  | protection of A2059 from DMS modification | partially protected | fully protected | strongly protects | strongly protects |  |  |  |  |  |  |  |  |  |  |  |  |  |  | Protection of A2058 and A2059 in domain V of 23S rRNA from modification with DMS ([3]; E. coli wild-type ribosomes): protect; Protection of A2058 and A2059 in domain V of 23S rRNA from modification with DMS ([4]; S. aureus wild-type ribosomes): protect |
| CC[C@H]1OC(=O)[C@H](C)C(=O)[C@H](C)[C@@H](O[C@@H]2O[C@H](C)C[C@H](N(C)C)[C@H]2O)[C@](C)(OC)C[C@@H](C)C(=O)[C@H](C)[C@H]2N(CCCCn3cnc(-c4cccnc4)c3)C(=O)O[C@]12C [telithromycin] | 0.5 µM | protected A2059 but to a lesser extent than CEM-101 or CEM-103 | notably weaker protection | notably weaker protection | strongly protects | strongly protects |  |  |  |  |  |  |  |  |  |  |  |  |  |  |  |
| CC[C@H]1OC(=O)[C@H](C)C(=O)[C@H](C)[C@@H](OC2O[C@H](C)C[C@H](N(C)C)[C@H]2O)[C@@](C)(OC)C[C@@H](C)C(=O)[C@H](C)[C@H]2N(CCCCn3cc(Cc4c[nH]c5ccccc45)nn3)C(=O)O[C@]12C (stereo partly shown) [CEM-199, 5-O-desosaminyl-11-N-[4-[4-(indol-3-ylmethyl)[1,2,3]triazol-1-yl]butyl]-6-O-methyl-3-oxo-erythronolide A 11,12-cyclic carbamate] |  |  |  |  |  |  | 16 | 0.06 | 0.5 | 0.5 | 0.06 | 0.5 | 0.12 | 16 | 1 | 0.12 | 0.06 | 0.06 | 0.5 | >16 | Screening result [19]: 1 |
| CC[C@H]1OC(=O)[C@@](C)(F)C(=O)[C@H](C)[C@@H](OC2O[C@H](C)C[C@H](N(C)C)[C@H]2O)[C@@](C)(OC)C[C@@H](C)C(=O)[C@H](C)[C@H]2N(CCCCn3cc(Cc4c[nH]c5ccccc45)nn3)C(=O)O[C@]12C (stereo partly shown) [CEM-219, 2-fluoro-5-O-desosaminyl-11-N-[4-[4-(indol-3-ylmethyl)[1,2,3]triazol-1-yl]butyl]-6-O-methyl-3-oxo-erythronolide A 11,12-cyclic carbamate] |  |  |  |  |  |  | >16 | ≦0.015 | 0.12 | 0.25 | ≦0.015 | 0.25 | ≦0.015 | >16 | 0.5 | ≦0.015 | ≦0.015 | ≦0.015 | 0.5 | >16 | Screening result [19]: 0.5 |
| 11-N-[4-[4-(3-aminophenyl)[1,2,3]triazol-1-yl]butyl]-5-O-desosaminyl-6-O-methyl-3-oxo-erythronolide A 11,12-cyclic carbamate [CEM-Des-F] |  |  |  |  |  |  |  |  |  |  |  |  |  |  |  |  |  |  |  |  | MIC50 [20]: 2 mg/L; MIC90 [20]: 2 mg/L; MIC50 [21]: 0.03 mg/L; MIC90 [21]: 0.03 mg/L; MIC50 [22]: 4 mg/L; MIC90 [22]: 4 mg/L; MIC50 [23]: 0.03 mg/L; MIC90 [23]: 0.03 mg/L |
